Test results as given in patent US20240368135A1 (VERTEX PHARMACEUTICALS INCORPORATED, priority 2021, published 2024).
Where a name gives a salt, the structure may show the parent alone.

Molecular target: human NaV 1.8 (Homo sapiens, UniProt Q9Y5Y9)
Experiment: E-VIPR assay detecting and measuring NaV inhibition properties
Format: cell-based
Conditions: HEK cells expressing truncated human NaV 1.8; no human serum; read-out: IC50 in the E-VIPR Assay
Procedure, shortened: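 Membrane potential was followed by coumarin/oxonol FRET during electrical field stimulation of matrigel-seeded HEK cells carrying truncated human NaV1.8 plus KIR2.1. Dosing used 11 points, 3-fold steps, top 300 nM final, 0.625% DMSO, with or without 25% human serum.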

Sequence of human NaV 1.8 (Q9Y5Y9 126-399 limits assumed): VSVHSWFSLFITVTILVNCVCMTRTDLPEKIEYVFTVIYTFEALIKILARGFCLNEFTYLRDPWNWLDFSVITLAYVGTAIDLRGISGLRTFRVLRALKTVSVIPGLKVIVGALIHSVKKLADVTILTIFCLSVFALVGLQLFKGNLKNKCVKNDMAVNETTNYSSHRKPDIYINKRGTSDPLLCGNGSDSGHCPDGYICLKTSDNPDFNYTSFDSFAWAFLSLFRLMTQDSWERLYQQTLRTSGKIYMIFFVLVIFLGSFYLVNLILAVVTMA
Sequence of human NaV 1.8 (Q9Y5Y9 660-890 limits assumed): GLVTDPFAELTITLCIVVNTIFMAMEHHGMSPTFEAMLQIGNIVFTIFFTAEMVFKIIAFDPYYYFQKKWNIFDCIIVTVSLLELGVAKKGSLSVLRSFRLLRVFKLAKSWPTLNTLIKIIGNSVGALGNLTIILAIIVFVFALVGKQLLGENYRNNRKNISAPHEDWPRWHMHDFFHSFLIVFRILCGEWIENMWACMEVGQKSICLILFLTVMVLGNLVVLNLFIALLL
Sequence of human NaV 1.8 (Q9Y5Y9 1148-1722 limits assumed): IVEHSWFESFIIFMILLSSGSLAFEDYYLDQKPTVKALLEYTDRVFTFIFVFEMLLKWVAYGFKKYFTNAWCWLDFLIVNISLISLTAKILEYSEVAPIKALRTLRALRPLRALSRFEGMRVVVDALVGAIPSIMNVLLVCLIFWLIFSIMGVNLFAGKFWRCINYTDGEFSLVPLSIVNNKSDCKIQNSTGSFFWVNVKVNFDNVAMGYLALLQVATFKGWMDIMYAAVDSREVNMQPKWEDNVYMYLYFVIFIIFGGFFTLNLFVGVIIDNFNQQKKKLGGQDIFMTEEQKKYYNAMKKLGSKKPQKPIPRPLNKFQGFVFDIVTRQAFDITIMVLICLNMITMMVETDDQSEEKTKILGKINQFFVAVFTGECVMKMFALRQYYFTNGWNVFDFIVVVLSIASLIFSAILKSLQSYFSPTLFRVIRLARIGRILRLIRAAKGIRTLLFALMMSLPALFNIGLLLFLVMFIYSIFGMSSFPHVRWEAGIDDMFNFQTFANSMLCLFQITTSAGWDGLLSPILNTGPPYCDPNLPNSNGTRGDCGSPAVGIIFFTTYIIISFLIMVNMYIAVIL

IC50 [nM]	Compound
10 to 100	C[C@H]1[C@@H](c2ccc(F)c(F)c2OCCO)[C@H](C(=O)Nc2cnn(C)c(=O)c2)O[C@@]1(C)C(F)(F)F [Compound 568, (2R,3S,4S,5R)-3-(3,4-difluoro-2-(2-hydroxyethoxy)phenyl)-4,5-dimethyl-N-(1-methyl-6-oxo-1,6-dihydropyridazin-4-yl)-5-(trifluoromethyl)tetrahydrofuran-2-carboxamide]
100 to 1000	Cc1ncc(NC(=O)[C@@H]2O[C@@](C)(C(F)(F)F)[C@@H](C)[C@H]2c2ccc(F)c(F)c2OCCO)cn1 [Compound 569, (2R,3S,4S,5R)-3-(3,4-difluoro-2-(2-hydroxyethoxy)phenyl)-4,5-dimethyl-N-(2-methylpyrimidin-5-yl)-5-(trifluoromethyl)tetrahydrofuran-2-carboxamide]
10 to 100	COc1cc(NC(=O)[C@@H]2O[C@@](C)(C(F)(F)F)[C@@H](C)[C@H]2c2ccc(F)c(F)c2OCCO)c(F)cn1 [Compound 570, (2R,3S,4S,5R)-3-(3,4-difluoro-2-(2-hydroxyethoxy)phenyl)-N-(5-fluoro-2-methoxypyridin-4-yl)-4,5-dimethyl-5-(trifluoromethyl)tetrahydrofuran-2-carboxamide]
10 to 100	C[C@H]1[C@@H](c2ccc(F)c(F)c2OCCO)[C@H](C(=O)Nc2ccc(C(F)F)nc2)O[C@@]1(C)C(F)(F)F [Compound 571, (2R,3S,4S,5R)-3-(3,4-difluoro-2-(2-hydroxyethoxy)phenyl)-N-(6-(difluoromethyl)pyridin-3-yl)-4,5-dimethyl-5-(trifluoromethyl)tetrahydrofuran-2-carboxamide]
10 to 100	C[C@H]1[C@@H](c2ccc(F)c(F)c2OCCO)[C@H](C(=O)Nc2cnsc2)O[C@@]1(C)C(F)(F)F [Compound 572, (2R,3S,4S,5R)-3-(3,4-difluoro-2-(2-hydroxyethoxy)phenyl)-N-(isothiazol-4-yl)-4,5-dimethyl-5-(trifluoromethyl)tetrahydrofuran-2-carboxamide]
100 to 1000	C[C@H]1[C@@H](c2ccc(F)c(F)c2OCCO)[C@H](C(=O)Nc2cnnn2C)O[C@@]1(C)C(F)(F)F [Compound 573, (2R,3S,4S,5R)-3-(3,4-difluoro-2-(2-hydroxyethoxy)phenyl)-4,5-dimethyl-N-(1-methyl-1H-1,2,3-triazol-5-yl)-5-(trifluoromethyl)tetrahydrofuran-2-carboxamide]
10 to 100	Cc1nnn2ccc(NC(=O)[C@@H]3O[C@@](C)(C(F)(F)F)[C@@H](C)[C@H]3c3ccc(F)c(F)c3OCCO)cc12 [Compound 574, (2R,3S,4S,5R)-3-(3,4-difluoro-2-(2-hydroxyethoxy)phenyl)-4,5-dimethyl-N-(3-methyl-[1,2,3]triazolo[1,5-a]pyridin-5-yl)-5-(trifluoromethyl)tetrahydrofuran-2-carboxamide]
< 10	C[C@H]1[C@@H](c2ccc(F)c(F)c2OCCO)[C@H](C(=O)Nc2cccnc2)O[C@@]1(C)C(F)(F)F [Compound 575, (2R,3S,4S,5R)-3-[3,4-difluoro-2-(2-hydroxyethoxy)phenyl]-4,5-dimethyl-N-(3-pyridyl)-5-(trifluoromethyl)tetrahydrofuran-2-carboxamide]
< 10	C[C@H]1[C@@H](c2ccc(F)c(F)c2OCCO)[C@H](C(=O)Nc2ccnnc2)O[C@@]1(C)C(F)(F)F [Compound 576, (2R,3S,4S,5R)-3-[3,4-difluoro-2-(2-hydroxyethoxy)phenyl]-4,5-dimethyl-N-pyridazin-4-yl-5-(trifluoromethyl)tetrahydrofuran-2-carboxamide]
< 10	COCCOc1c([C@H]2[C@H](C(=O)Nc3ccc4nncn4c3)O[C@@](C)(C(F)(F)F)[C@H]2C)ccc(F)c1F [Compound 577, (2R,3S,4S,5R)-3-[3,4-difluoro-2-(2-methoxyethoxy)phenyl]-4,5-dimethyl-N-([1,2,4]triazolo[4,3-a]pyridin-6-yl)-5-(trifluoromethyl)tetrahydrofuran-2-carboxamide]
10 to 100	C[C@H]1[C@@H](c2ccc(F)c(F)c2OCC2COC2)[C@H](C(=O)Nc2cccnc2)O[C@@]1(C)C(F)(F)F [Compound 578, (2R,3S,4S,5R)-3-(3,4-difluoro-2-(oxetan-3-ylmethoxy)phenyl)-4,5-dimethyl-N-(pyridin-3-yl)-5-(trifluoromethyl)tetrahydrofuran-2-carboxamide]
< 10	Cc1nn(C(F)F)cc1NC(=O)[C@@H]1O[C@@](C)(C(F)(F)F)[C@@H](C)[C@H]1c1ccc(F)c(F)c1OCC1COC1 [Compound 579, (2R,3S,4S,5R)-3-(3,4-difluoro-2-(oxetan-3-ylmethoxy)phenyl)-N-(1-(difluoromethyl)-3-methyl-1H-pyrazol-4-yl)-4,5-dimethyl-5-(trifluoromethyl)tetrahydrofuran-2-carboxamide]
< 10	C[C@H]1[C@@H](c2ccc(F)c(F)c2OCC2COC2)[C@H](C(=O)Nc2ccc(C(N)=O)nc2)O[C@@]1(C)C(F)(F)F [Compound 580, 5-((2R,3S,4S,5R)-3-(3,4-difluoro-2-(oxetan-3-ylmethoxy)phenyl)-4,5-dimethyl-5-(trifluoromethyl)tetrahydrofuran-2-carboxamido)picolinamide]
100 to 1000	C[C@H]1[C@@H](c2ccc(F)c(F)c2OCC2COC2)[C@H](C(=O)Nc2ccc(C(C)(C)O)nc2)O[C@@]1(C)C(F)(F)F [Compound 581, (2R,3S,4S,5R)-3-(3,4-difluoro-2-(oxetan-3-ylmethoxy)phenyl)-N-(6-(2-hydroxypropan-2-yl)pyridin-3-yl)-4,5-dimethyl-5-(trifluoromethyl)tetrahydrofuran-2-carboxamide (TFA salt)]
100 to 1000	COCCOc1c([C@H]2[C@H](C(=O)Nc3cnn(C(C)(C)CO)c3)O[C@@](C)(C(F)(F)F)[C@H]2C)ccc(F)c1F [Compound 582, (2R,3S,4S,5R)-3-(3,4-difluoro-2-(2-methoxyethoxy)phenyl)-N-(1-(1-hydroxy-2-methylpropan-2-yl)-1H-pyrazol-4-yl)-4,5-dimethyl-5-(trifluoromethyl)tetrahydrofuran-2-carboxamide]
100 to 1000	COCCOc1c([C@H]2[C@H](C(=O)Nc3cnn(CC(C)(C)O)c3)O[C@@](C)(C(F)(F)F)[C@H]2C)ccc(F)c1F [Compound 583, (2R,3S,4S,5R)-3-(3,4-difluoro-2-(2-methoxyethoxy)phenyl)-N-(1-(2-hydroxy-2-methylpropyl)-1H-pyrazol-4-yl)-4,5-dimethyl-5-(trifluoromethyl)tetrahydrofuran-2-carboxamide]
< 10	COCCOc1c([C@H]2[C@H](C(=O)Nc3ccc(=O)n(C)c3)O[C@@](C)(C(F)(F)F)[C@H]2C)ccc(F)c1F [Compound 584, (2R,3S,4S,5R)-3-(3,4-difluoro-2-(2-methoxyethoxy)phenyl)-4,5-dimethyl-N-(1-methyl-6-oxo-1,6-dihydropyridin-3-yl)-5-(trifluoromethyl)tetrahydrofuran-2-carboxamide]
10 to 100	COCCOc1c([C@H]2[C@H](C(=O)Nc3ccnc(N4CCN(C)CC4=O)c3)O[C@@](C)(C(F)(F)F)[C@H]2C)ccc(F)c1F [Compound 585, (2R,3S,4S,5R)-3-(3,4-difluoro-2-(2-methoxyethoxy)phenyl)-4,5-dimethyl-N-(2-(4-methyl-2-oxopiperazin-1-yl)pyridin-4-yl)-5-(trifluoromethyl)tetrahydrofuran-2-carboxamide]
